The text below walks through data of patent US20070249537A1, “ABSORPTION ENHANCING AGENTS” (Supernus Pharmaceuticals, Inc., priority 2003, published 2007).

Values after ≈ are worked out from the molar mass of the structure shown. Read-outs that look alike come from different tables or passages of the source. Marks after values point to notes of the source that are not given here.

For one data set, the system named is Caco-2 cells. Kind of data set: Lactate dehydrogenase (LDH) assay after the permeation studies. The format is cell-based, human. The protocol:
In addition, a lactate dehydrogenase (LDH) assay was conducted after the permeation studies to evaluate the cytotoxicity of the absorption enhancers as well as to discover any violation of the integrity of the Caco-2 cells. LDH is a cytosolic enzyme that is not normally secreted outside the cell. However, it leaks into the culture medium upon damage to the cell membranes. In vitro release of LDH from cells provides an accurate measure of cell membrane integrity and cell viability. […] LDH leakage into the apical compartment of the Caco-2 cell system was used to measure the effect, if any, of a given absorption enhancer on the viability of the Caco-2 cells.

Data set [1] deals with Caco-2 cell line. The format is in vitro ADME, human. The note with it: for Effect on sampatrilat permeation across the Caco-2 cell line / Permeability Coefficient, Sampatrilat: Caco-2. An excerpt: (§1) The Caco-2 cell line is a well-recognized in vitro screening model, which both structurally and functionally represents the small intestinal epithelium. Caco-2 cells are derived from human colon carcinoma cells and differentiate in culture to form intestinal epithelia similar to that found in the small intestine. More specifically, Caco-2 cells form a brush border with normal enzymes, form tight junctions between cells, and acquire the barrier properties of an enterocyte sheet.
(§2) Permeability coefficients are determined as previously reported by Yazdania et.el (Yazdanian M, Glynn, S I, Wright J L, et al. 1998. Correlating partitioning and Caco-2 permeability of structurally diverse small molecular weight compounds. Pharm Res 15:1490-1494). Briefly, drug solutions were prepared in HBSS at a known final concentration. For AP to BL experiments, the solution was placed on the apical side of the cells and samples were taken from basolateral side. In contrast, for BL to AP experiments, the solution was placed on the basolateral side of the cells and samples were taken from apical side. The samples are analyzed by an HPLC. Transport rates (J) are determined by plotting cumulative amounts of drug permeated as a function of time. Apparent permeability coefficients Pcaco-2, are determined according to the equation Pcaco-2=J/ACi where Ci is the initial concentration of the solution in donor chamber and A is the surface area of the filter.
(§3) The original cell line integrity and the effect of excipients on the integrity of cell line were also tested by measuring the flux of ^14C-mannitol.
In general terms: Caco-2 monolayers are a common model of the intestinal barrier.

The subject of data set [2] is Caco-2 cell line. The format is in vitro ADME, human. On the procedure: as §2, §3
Data set [3] concerns Caco-2 cell line. The format is in vitro ADME, human.
Excerpt: as §1, §2
The source holds these as a separate data set.

Data set [4] is described as follows: Aqueous solubility of sampatrilat. The format is physicochemical.
The conditions of data set [5]: in vivo; tablet dosage form; earlier studies; cited from earlier work.
Data set [6] relates to Caco-2 cell line. Particulars: human.
Experimental: (§4) The effectiveness of N-methylated glycines as permeability enhancers was evaluated using mannitol as a control.
A further data set is described as follows: in vitro. The note with it: human, Caco-2.
[7] abbreviates: hydrochlorothiazide study 3, excipient 1% (none for drug alone).
Where [8] appears, read: sampatrilat study, excipient 1% w/v (none for drug alone).
Where [9] appears, read: hydrochlorothiazide study 1, excipient 1% (none for drug alone).
The mark [10] stands for this setting: hydrochlorothiazide study 5, excipient 5% w/v (none for drug alone).
[11] abbreviates: hydrochlorothiazide study 2, excipient 1% (none for drug alone).
[12] abbreviates: mannitol study, first series, enhancer 1% (none for mannitol control).
[13] abbreviates: mannitol study, first series, enhancer 0.5%.

Experimental for in vitro: as §4

Regarding `O=C(O)C1=C[C@@H](O)[C@@H](O)[C@H](O)C1` [Shikimic acid, shikimic acid], the Toxicity result with Caco-2 cells (setting [7]) is given as “No”; in the data set on Caco-2 cells (hydrochlorothiazide study 5, excipient 3% w/v), “No”; in the data set on Caco-2 cells (setting [8]) it was “No”.
Turning to `O=C(O)CCCCCCCCC(=O)O` [Sebacic acid, sebacic acid], in the data set on Caco-2 cell line [1], the “Effect on sampatrilat permeation across the Caco-2 cell line” value is “significantly increase” and the “Permeability Coefficient, Sampatrilat” value is listed as 2.10 10E−6 cm/s. Further, in the data set on Caco-2 cell line [2], the “Permeability coefficient (mannitol)” value is given as 7.50 10E−6 cm/s. Moreover, the “Cytotoxicity relative to cells treated with Hank's balanced salt solution alone” value with Caco-2 cells is reported as “not cytotoxic”. Further, in the data set on Caco-2 cells (setting [7]), the Toxicity result is listed as “No”. Also, the Toxicity result in the data set on Caco-2 cells (setting [8]) was “No”. Further, in the data set with Caco-2 cell line [3], the “Permeability coefficient (hydrochlorothiazide)” value is given as 7.30 ×10^−6, cm/s and the “Permeability enhancement of hydrochlorothiazide” value (from here on “Permeability enhancement”) is given as “demonstrated as permeability enhancers”.
As to `CC1(C)[C@@H](O)CC[C@]2(C)[C@H]3C(=O)C=C4[C@@H]5C[C@@](C)(C(=O)O)CC[C@]5(C)CC[C@@]4(C)[C@]3(C)CC[C@@H]12` [Glycyrrehetinic acid, 18β-glycyrrhetinic acid, reference compound], in the data set on Caco-2 cells (setting [9]), the Toxicity result was “No”. Besides, the “Permeability enhancement” value with Caco-2 cell line [3] was “low or no potency”.
Consider `O=C1CCCCCCCCCCCCCCO1` [Cyclopentadecanolide, cyclopentadecanolide], for which the Toxicity entry in the data set with Caco-2 cells (setting [9]) and with Caco-2 cells (setting [10]) was “No” each time. Besides, the “Permeability enhancement” value in the data set with Caco-2 cell line [3] was “low or no potency”.
In data set [4], `CS(=O)(=O)N[C@@H](CCCCN)C(=O)NC[C@H](CC1(C(=O)N[C@@H](Cc2ccc(O)cc2)C(=O)O)CCCC1)C(=O)O` [Sampatrilat] yielded a solubility of 1800 µg/mL (≈ 3.08 mM). Also, the Oral bioavailability in data set [5] was 2-5%.
`O=C(/C=C/C=C/c1ccc2c(c1)OCO2)N1CCCCC1` [Piperine, piperine]: the results for the Toxicity entry in the data set with Caco-2 cells (setting [11]) and in the data set on Caco-2 cells (setting [10]) were “No” and “Yes”, respectively. Moreover, the “Permeability enhancement” value in the data set with Caco-2 cell line [3] is reported as “low or no potency”.
`OC[C@@H](O)[C@@H](O)[C@H](O)[C@H](O)CO` [Mannitol, reference compound]: the Toxicity result with Caco-2 cells (setting [12]) was “No”; with Caco-2 cells (mannitol study, second series, 1% enhancer and 1% Tween 80 (none for mannitol control)) it was “No”. The Enhancement ratio with Caco-2 cell line [6] (Caco-2) was found to be 1.0; in the data set with Caco-2 cell line [6] (Caco-2, 1 %), 1.0. Moreover, the “Permeability coefficient (mannitol)” value with Caco-2 cell line [6] (Caco-2, 1 %) was 0.93^a ×10^−6 cm/sec. Moreover, the Papp at 6.8 uM in the data set “in vitro” was 1.24 ×10⁻⁶ cm/s.
On to Vitamin E TPGS [Vitamin E TGPS], for which the Toxicity result with Caco-2 cells (setting [7]) is reported as “No”. Besides, in the data set on Caco-2 cell line [3], the “Permeability coefficient (hydrochlorothiazide)” value is recorded as 0.58 ×10^−6, cm/s and the “Permeability enhancement” value was “low or no potency”.
Regarding `CN(C)CC(=O)O` [N,N-dimethylglycine], the “Effect on sampatrilat permeation across the Caco-2 cell line” value with Caco-2 cell line [1] was “significantly increase”. The “Permeability Coefficient, Sampatrilat” value in the data set with Caco-2 cell line [1] is on record as 19.90 10E−6 cm/s. In the data set with Caco-2 cell line [1] (human, Caco-2, 1 % w/v), the “Increase of sampatrilat permeability over the drug alone” value came out at 124 fold. Moreover, the “Permeability coefficient (mannitol)” value in the data set on Caco-2 cell line [2] is reported as 12.30 10E−6 cm/s. Further, in the data set with Caco-2 cells, the “Cytotoxicity relative to cells treated with Hank's balanced salt solution alone” value is on record as “not cytotoxic”. Besides, the Toxicity result in the data set with Caco-2 cells (setting [9]) is listed as “No”; in the data set with Caco-2 cells (setting [11]) it was “No”; in the data set on Caco-2 cells (hydrochlorothiazide study 4, excipient 1% (none for drug alone)), “No”; in the data set with Caco-2 cells (setting [13]) it was “No”; in the data set on Caco-2 cells (setting [12]), “No”; with Caco-2 cells (setting [8]), “No”. Also, the “Permeability enhancement” value in the data set on Caco-2 cell line [3] is “demonstrated as permeability enhancers”. Also, the Enhancement ratio is recorded as 9.9 in the data set on Caco-2 cell line [6] (Caco-2, 0.5 %) and 15.9 with Caco-2 cell line [6] (Caco-2, 1 %).
With `C[N+](C)(C)CC(=O)O` [betaine, trimethyl glycine], the Toxicity result in the data set on Caco-2 cells (setting [12]) is “No”.
Turning to `CNCC(=O)O` [sarcosine, methyl glycine], the Toxicity entry in the data set on Caco-2 cells (setting [13]) and in the data set on Caco-2 cells (setting [12]) was “No” each time. Also, the Enhancement ratio in the data set with Caco-2 cell line [6] (Caco-2, 0.5 %) is 1.8; with Caco-2 cell line [6] (Caco-2, 1 %) it was 1.0. The “Permeability coefficient (mannitol)” value with Caco-2 cell line [6] (Caco-2, 0.5 %) stood at 1.71e-06 cm/s; with Caco-2 cell line [6] (Caco-2, 1 %), 8.9e-07 cm/s.
`NC(=O)NCCC[C@H](N)C(=O)O` [Citrulline]: in the data set with Caco-2 cell line [1], the “Permeability Coefficient, Sampatrilat” value is 0.34 10E−6 cm/s. Besides, the “Permeability coefficient (mannitol)” value in the data set with Caco-2 cell line [2] is on record as 0.22 10E−6 cm/s. Also, in the data set on Caco-2 cells (setting [8]), the Toxicity entry was “Yes”.
`NCC(=O)O` [glycine]: the Toxicity result with Caco-2 cells (setting [13]) and with Caco-2 cells (setting [12]) was “No” throughout. In addition, the Enhancement ratio with Caco-2 cell line [6] (Caco-2, 0.5 %) is listed as 0.9; with Caco-2 cell line [6] (Caco-2, 1 %), 1.0. The “Permeability coefficient (mannitol)” value in the data set with Caco-2 cell line [6] (Caco-2, 0.5 %) was determined as 8.5e-07 cm/s; with Caco-2 cell line [6] (Caco-2, 1 %), 9.3e-07 cm/s.
Regarding `NCCCCCC(=O)O` [Amino caproic acid], in the data set on Caco-2 cell line [1], the “Permeability Coefficient, Sampatrilat” value is recorded as 0.48 10E−6 cm/s. In addition, the “Permeability coefficient (mannitol)” value with Caco-2 cell line [2] is reported as 1.07 10E−6 cm/s. For the same molecule, the Toxicity result with Caco-2 cells (setting [8]) was “Yes”.
For `O=c1cc(CO)occ1O` [Kojic acid] the same measures were 0.49 10E−6 cm/s, 1.63 10E−6 cm/s and “Yes”.

What is called solubility is the concentration that dissolves in the medium under given conditions. The Papp is the rate of passage across a membrane or cell layer, normalised by area and donor concentration. A high value points to fast passage.
